PubChem BioAssay AID608 (Sanford-Burnham Center for Chemical Genomics, 2007)
Active and inactive are the calls of the source. The rule behind the calls is not given here.

What follows are compounds tested against Peptidyl-prolyl cis-trans isomerase FKBP1A (Homo sapiens) (UniProt P62942) (assay: small-molecule binding to FKBP12 – biophysical, NMR detection (AID 608)). Settings: purified FKBP12.
Sequence of Peptidyl-prolyl cis-trans isomerase FKBP1A (Homo sapiens) (P62942 whole entry, looked up): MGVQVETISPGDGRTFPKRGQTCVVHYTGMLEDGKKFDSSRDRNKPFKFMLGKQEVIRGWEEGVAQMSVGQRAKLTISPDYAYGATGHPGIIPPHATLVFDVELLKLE

SMILES	Kd
CC(=O)n1c(N)nc2ccccc21	> 4 mM (inactive)
Cc1cc(C(=O)N2CCOCC2)c(C)o1	> 4 mM (inactive)
CS(=O)(=O)N/N=C/c1cccs1	> 4 mM (inactive)
CN(c1ccc(C(=O)N2CCCCC2)cc1)S(C)(=O)=O	> 4 mM (inactive)
NC(=O)C1CC2C=CC1C2 (configuration not stated)	> 4 mM (inactive)
O=C1Cn2c(nc3ccccc32)N1c1ccccc1F	> 4 mM (inactive)
NC[C@H]1O[C@H](O[C@H]2[C@H](O)[C@@H](O[C@H]3O[C@H](CO)[C@@H](O)[C@H](N)[C@H]3O)[C@H](N)C[C@@H]2N)[C@H](N)[C@@H](O)[C@@H]1O	> 4 mM (inactive)
Cc1ccc2nc(SCCC#N)nc(C)c2c1	> 4 mM (inactive)
O=C1NC(=S)N/C1=C\c1cccnc1	> 4 mM (inactive)
O=S1(=O)C=CC(Nc2ccccc2)C1 (configuration not stated)	> 4 mM (inactive)
NS(=O)(=O)c1ccc2c(c1)OCCO2	> 4 mM (inactive)
NC(=O)CSc1nnnn1-c1ccccc1	> 4 mM (inactive)
O=C(O)C1CSC2(CCCCC2)N1 (configuration not stated)	> 4 mM (inactive)
O=C(Nc1ccc(N2CCOCC2)cc1)C1CC1	> 4 mM (inactive)
O=C(CSc1nc2ccccc2[nH]1)N1CCCCC1	> 4 mM (inactive)
Cc1c(CCO)c(=O)n2c([nH]c3ccccc32)c1C#N	> 4 mM (inactive)
O=C(Nc1nncs1)c1c(F)cccc1F	> 4 mM (inactive)
O=C1CCCCCN1CO	> 4 mM (inactive)
CNC(=O)N1CCN(C(=O)NC)CC1	> 4 mM (inactive)
Cc1cc(S(=O)(=O)N2CCCC2)ccc1OCC(=O)N1CCOCC1	inactive
O=C1C[C@@H](c2ccc(O)cc2)Oc2cc(O)cc(O)c21	> 4 mM (inactive)
Nc1ccc2c(c1)COc1ccccc1O2	> 4 mM (inactive)
O=C(CC1NC(=O)NC1=O)Nc1ccccc1 (configuration not stated)	> 4 mM (inactive)

SMILES	Kd
O=c1[nH]c(=S)c2c(n1-c1ccccc1)CCC2	> 4 mM (inactive)
NC(=O)CSc1nnc2ccc(-c3ccco3)nn12	> 4 mM (inactive)
OC12C=CC(CC1)CC2	> 4 mM (inactive)
C[C@H]1OC(O[C@H]2[C@@H](O)CC(O[C@H]3[C@@H](O)C[C@H](O[C@H]4CC[C@]5(C)C6CC[C@]7(C)[C@@H](C8=CC(=O)OC8)[C@@H](O)C[C@]7(O)[C@@H]6CC[C@@H]5C4)O[C@@H]3C)O[C@@H]2C)C[C@H](O)C1O (some centres not stated)	> 4 mM (inactive)
Cc1ccc(C(C)C)c(OCCNC(=O)c2ccccc2OCC(=O)N2CCOCC2)c1	inactive
C1CCN2C[C@@H]3C[C@H](CN4CCCC[C@@H]34)[C@H]2C1	> 4 mM (inactive)
CCn1c(=O)cc(N2CCC3(CC2)OCCO3)[nH]c1=O	> 4 mM (inactive)
Cn1c(=O)c2[nH]cnc2n(C)c1=O	> 4 mM (inactive)
O=C(O)c1csc(-c2cccs2)n1	> 4 mM (inactive)
O=C(Cn1c(-c2cscn2)nc2ccccc21)Nc1ccccc1F	> 13.6 mM (inactive)
COc1ccc2c(c1)OC[C@@H](Cc1ccc(OC)c(OC)c1)[C@@H]2O	> 4 mM (inactive)
c1ccc2c(c1)[nH]c1cnccc12	> 4 mM (inactive)
C#CCCCCCCCCCCCC(O)CC(O)COC(C)=O (configuration not stated)	> 4 mM (inactive)
Cc1cc(C(=O)NCc2cccnc2)no1	> 4 mM (inactive)
NC(N)=NOCC[C@H](N)C(=O)O	> 4 mM (inactive)
Nc1cccc(S(=O)(=O)N2CCOCC2)c1	> 4 mM (inactive)
c1ccc2[nH]c(NCCN3CCOCC3)nc2c1	> 4 mM (inactive)
CC(C)Oc1ccc(C2CC(=O)NNC2=O)cc1 (configuration not stated)	> 4 mM (inactive)
CC(=O)N1CCN(c2ccc(N)cc2)CC1	> 4 mM (inactive)
CCNC(CC(=O)Nc1ccc(O)cc1)C(=O)O (configuration not stated)	> 4 mM (inactive)
O=C1CSC(=Nc2cccc(C(=O)O)c2)N1	> 4 mM (inactive)
NCCc1ccc(S(N)(=O)=O)cc1	> 4 mM (inactive)
CC(C)(C)C(=O)Nc1ncc(C(F)(F)F)cc1Cl	> 4 mM (inactive)

SMILES	Kd
O=C(O)CCCC(=O)Nc1nccs1	> 4 mM (inactive)
CNC(=S)Nc1ncn(Cc2cccc(F)c2)n1	> 4 mM (inactive)
COC(=O)c1cccc2cc[nH]c12	> 4 mM (inactive)
CC(C)=CCC[C@](C)(O)C1CC=C(C)CC1 (some centres not stated)	> 4 mM (inactive)
O=C1c2ccccc2-c2ncnc3cccc1c23	> 4 mM (inactive)
O=C(Nc1ccon1)c1sc2cc(F)ccc2c1Cl	> 4 mM (inactive)
Cn1nc(-c2ccccc2)cc1N	> 4 mM (inactive)
CN=C1SC(CC(=O)Nc2ccc(O)cc2)C(=O)N1C (configuration not stated)	> 4 mM (inactive)
NC(=O)Cn1cnc2c(cnn2-c2ccccc2)c1=O	> 4 mM (inactive)
NS(=O)(=O)c1ccc(NC(=S)NC2CC2)cc1	> 4 mM (inactive)
CCCCn1c(=O)cc(O)c2ccccc21	> 4 mM (inactive)
COc1cc(/C=C2\SC(=S)NC2=O)ccc1O	> 4 mM (inactive)
COc1cc(OC)c2c(c1)O[C@H](c1ccc(OC)c(OC)c1)[C@@H](O)C2	> 4 mM (inactive)
c1ccc(CNc2ncnc3nc[nH]c23)nc1	> 4 mM (inactive)
O=C1CCN(c2ccccc2)N1	> 4 mM (inactive)
CC(=O)O[C@@H]1CC2C(C)(C)C(=O)[C@@H]3O[C@@H]3[C@]2(C)C2CC[C@]3(C)C(=CC(=O)O[C@H]3c3ccoc3)[C@@]21C (some centres not stated)	> 4 mM (inactive)
Cn1c(=O)c2[nH]cnc2n(-c2ccccc2)c1=O	> 4 mM (inactive)
O=c1nc(C(F)(F)F)nc2ccccn12	> 4 mM (inactive)
COC(=O)c1ccc(Cl)c(NC(C)=O)c1	> 4 mM (inactive)
COc1ccc(-c2cc(=O)c3c(O)cc(O[C@@H]4O[C@H](CO[C@H]5O[C@H](C)[C@@H](O)[C@H](O)[C@@H]5O)[C@@H](O)[C@H](O)[C@H]4O)cc3o2)cc1O	> 4 mM (inactive)
NCc1ccc(N2CCOCC2)cc1	> 4 mM (inactive)
COC1CC(O[C@H]2CC[C@]3(C=O)C4CC[C@]5(C)C(C6=CC(=O)OC6)CC[C@]5(O)C4CC[C@]3(O)C2)OC(C)C1O (some centres not stated)	> 4 mM (inactive)
O=C(CCc1ccc(O)cc1)c1c(O)cc(O)cc1O	> 4 mM (inactive)

SMILES	Kd
CCn1cnc2sc(C(=O)O)c(C)c2c1=O	> 4 mM (inactive)
CNC[C@@H](O)c1ccc(O)c(O)c1	> 4 mM (inactive)
CC(=O)Nc1ccc(N2CCOCC2)cc1	> 4 mM (inactive)
O=c1oc2ccccc2cc1O	> 4 mM (inactive)
CC(=O)c1cc(C(N)=O)c(=S)[nH]c1C	> 4 mM (inactive)
CC1(C)CC2(CCO1)NCCN1C(=O)CSC12 (configuration not stated)	> 4 mM (inactive)
O=C(Nc1ccon1)c1cccc(Cl)c1	> 4 mM (inactive)
Nc1ccccc1N=C1CNC(=O)C1	> 4 mM (inactive)
COc1ccc(S(N)(=O)=O)cc1	> 4 mM (inactive)
CC(=O)O[C@@H]1CC2C(C)(C)CCC(=O)[C@]2(C)C2CC[C@@]3(C)[C@H](c4ccoc4)OC(=O)C4OC43[C@@]21C (some centres not stated)	> 4 mM (inactive)
OC1COCc2nc3ccccc3n2C1 (configuration not stated)	> 4 mM (inactive)
COc1ccc2c(Cl)c(C(=O)N3CCOCC3)sc2c1Cl	inactive
Cn1c(CN)nc2ccccc21	> 4 mM (inactive)
c1cncc(C2CCCCN2)c1 (configuration not stated)	> 4 mM (inactive)
COc1ccc2c(c1)OCC(Cc1ccc(OC)c(OC)c1)C2=O (configuration not stated)	> 4 mM (inactive)
Cc1n[nH]c(=S)n(/N=C/c2ccccc2)c1=O	> 4 mM (inactive)
C=C1C2CC[C@@]3(C)[C@H](c4ccoc4)OC(=O)C[C@]13O[C@H]1CC(O)C(C)(C)C(CC(=O)OC)[C@@]21C (some centres not stated)	> 4 mM (inactive)
O=C(Nn1cnnc1)c1cc2c(s1)CCCCC2	> 4 mM (inactive)
C/C=C/C=N/NC(=O)c1ccc(=O)n(C)c1	> 4 mM (inactive)
NC(CC(=O)O)c1ccccc1 (configuration not stated)	> 4 mM (inactive)
COc1ccc(Cc2nccc3cc(OC)c(OC)cc23)cc1OC	> 4 mM (inactive)
O=C(c1cccc(C(F)(F)F)c1)N1CCCC1	> 4 mM (inactive)
CSc1ccc(/C=c2\sc3ncnn3c2=O)cc1	> 4 mM (inactive)

SMILES	Kd
O=C(CN1C(=O)CCC1=O)c1ccccc1	> 4 mM (inactive)
CN(C)c1nc(N)nc(Cn2ccnc2)n1	> 4 mM (inactive)
O=C1NC(=S)NC(=O)C1=Cc1ccco1	> 4 mM (inactive)
CC1(C)C2CC(=O)[C@]3(C)C(CC[C@@]4(C)[C@H](c5ccoc5)OC(=O)[C@H]5O[C@]543)[C@@]2(C)C=C[C@@H]1O (some centres not stated)	> 4 mM (inactive)
CC(=O)Oc1c2c(c(CC=C(C)C)c3c1C(=O)C1=C[C@@H]4CC5C(C)(C)OC(C/C=C(\C)C(=O)O)(C4=O)[C@@]15O3)OC(C)(CCC=C(C)C)C=C2 (some centres not stated)	> 4 mM (inactive)
C/C(=N\NC(N)=S)C(=O)O	> 4 mM (inactive)
C=C1CCC2[C@](C)(CO)[C@H](O)CC[C@@]2(C)[C@@H]1C/C=C1/C(=O)OC[C@H]1O (some centres not stated)	> 4 mM (inactive)
O=CN1CCN(C(=O)c2ccccc2Cl)CC1	> 4 mM (inactive)
CC12OC(=O)CC3C(C)(C)[C@H](O)C=C[C@]3(C)C1CC[C@]1(C)C2=CC(=O)O[C@H]1c1ccoc1 (some centres not stated)	> 4 mM (inactive)
COc1ccc(N2CC(=O)NC2=O)cc1	> 4 mM (inactive)
COC(=O)CC1NC2CCCCC2NC1=O (configuration not stated)	> 4 mM (inactive)
Cc1c(C(=O)NC2=NCCS2)oc2ccccc12	> 4 mM (inactive)
CC1(NC(=O)NCc2ccccc2)CCS(=O)(=O)C1 (configuration not stated)	> 4 mM (inactive)
COC(=O)c1cccc(Cn2nnc3ccccc3c2=O)c1	> 4 mM (inactive)
O=C(c1ccco1)N1CCn2c1nc1ccccc12	> 4 mM (inactive)
O=c1[nH]nc(Cc2ccccn2)c2ccccc12	> 4 mM (inactive)
CCOc1ccc2ccccc2c1C(=O)N1CCOCC1	> 4 mM (inactive)
Cc1ccccc1NC(=O)CSc1ccnc(=O)[nH]1	> 4 mM (inactive)
COC(=O)N1CCN(c2ccc(C(C)=O)cc2)CC1	> 4 mM (inactive)
COc1c2c(cc3occ(-c4ccc5c(c4)OCO5)c(=O)c13)OC(C)(C)C=C2	> 4 mM (inactive)
